The source of these data is PubChem BioAssay (NCI).

Among the test systems are HT29 colon; K-562 leukemia; KM12 colon; M14 melanoma; OVCAR-8 ovarian; PC-3 prostate; RXF 393 renal; SF-295 CNS; SW-620 colon; T-47D breast.
What all share (test): NCI anticancer screen, dose series, 48 h

Several values for one entry are separate records, joined by “and”; a condition that tells them apart may be missing. Equal values may be shown once.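 Assay format: 96-well plates, 48-hour exposure. Here, GI50 denotes the concentration required for 50% inhibition of growth. TGI: concentration producing complete growth inhibition.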

Turning to `Brc1c[n+](Cc2ccc3ccccc3c2)cn1Cc1ccc2ccccc2c1`, the GI50 is 1190 nM in the assay with HT29 colon; 1.84 µM in the assay with K-562 leukemia; 1.67 µM in the assay with KM12 colon; 1.4 µM in the assay with M14 melanoma; 1.89 µM in the assay on OVCAR-8 ovarian; 1.54 µM in the assay on PC-3 prostate. The GI50 is 2.51 µM in the assay with RXF 393 renal, 2220 nM with SF-295 CNS, 1.61 µM with SW-620 colon and 2.14 µM with T-47D breast. The TGI came out at 3.35 µM in the assay on HT29 colon; 10.6 µM in the assay on K-562 leukemia; 3.28 µM with KM12 colon; 2.92 µM in the assay with M14 melanoma; 4.55 µM in the assay with OVCAR-8 ovarian; 3.62 µM in the assay with PC-3 prostate. Besides, the TGI in the assay with RXF 393 renal is 6.75 µM; with SF-295 CNS, 7.28 µM; in the assay on SW-620 colon, 3.62 µM; with T-47D breast, 7.2 µM.
Turning to `O=C(NNc1nc2cc(F)ccc2n2c(CN3CCOCC3)ccc12)c1ccccc1`, the GI50 in the assay on HT29 colon is 449 nM; in the assay on K-562 leukemia, 0.336 µM; in the assay on KM12 colon, 0.369 µM; in the assay on M14 melanoma it was 0.173 µM; in the assay with OVCAR-8 ovarian, 0.321 µM; in the assay with PC-3 prostate, 0.339 µM. For the same molecule, the GI50 in the assay with RXF 393 renal is 0.363 µM; in the assay with SF-295 CNS, 181 nM; in the assay on SW-620 colon, 0.33 µM; with T-47D breast, 0.36 µM. For the same molecule, the TGI stood at 7.48 µM in the assay with HT29 colon; 4.21 µM in the assay on K-562 leukemia; 2.45 µM with KM12 colon; 1.26 µM with M14 melanoma; 7.66 µM with OVCAR-8 ovarian; 3.05 µM with PC-3 prostate. In addition, the TGI with RXF 393 renal worked out at 2.06 µM; in the assay on SF-295 CNS, 1.52 µM; in the assay on SW-620 colon it was 2.11 µM; in the assay with T-47D breast, 2.24 µM.
For the molecule `COC1/C=C/O[C@@]2(C)Oc3c(C)c(O)c4c(O)c(cc(O)c4c3C2=O)NC(=O)/C(C)=C\C=C\[C@H](C)C(O)[C@@H](C)[C@@H](O)[C@@H](C)[C@H](OC(C)=O)[C@@H]1C` (stereo not given in full), the GI50 was 11600 nM in the assay on HT29 colon; 4.47 µM in the assay on K-562 leukemia; 19 µM in the assay on KM12 colon; 13.8 µM in the assay with M14 melanoma; 14.9 µM in the assay with OVCAR-8 ovarian; 7.74 µM with PC-3 prostate. The GI50 is 14 µM in the assay on RXF 393 renal; 2.72 µM and 7.91 µM in the assay with SW-620 colon; 8.63 µM in the assay on T-47D breast. Besides, the TGI in the assay with HT29 colon is 24.3 µM and 34.5 µM; in the assay on K-562 leukemia it was 21.8 µM and 82.6 µM; with KM12 colon it was 35.4 µM and 97.2 µM; in the assay on M14 melanoma it was 27 µM and 35.7 µM; in the assay with OVCAR-8 ovarian, 29.8 µM and 57.4 µM; in the assay with PC-3 prostate, 20.4 µM and 34 µM. The TGI in the assay on RXF 393 renal was 29.9 µM and 25.7 µM; with SF-295 CNS, 196 µM; in the assay with SW-620 colon, 13.6 µM and 21.9 µM; in the assay with T-47D breast, 23.2 µM and 48.5 µM.
On to `CCCOC(=O)N[C@H]1CCc2c(Br)c(OC)c(OC)c(OC)c2-c2ccc(SC)c(=O)cc21`, for which the GI50 in the assay with HT29 colon is 29.7 nM; in the assay on K-562 leukemia it was under 0.01 µM; in the assay on KM12 colon, under 0.0145 µM; in the assay with M14 melanoma it was 0.0207 µM; with OVCAR-8 ovarian, 0.0438 µM; in the assay with PC-3 prostate it was 0.0197 µM. Besides, the GI50 with RXF 393 renal is 0.0397 µM; with SF-295 CNS it was 25.2 nM; in the assay with SW-620 colon it was 0.0245 µM; in the assay on T-47D breast it was 14.1 µM. Besides, the TGI in the assay with HT29 colon was over 48 µM; in the assay on K-562 leukemia it was over 100 µM; in the assay with KM12 colon it was 7.92 µM; in the assay on M14 melanoma, 3.67 µM; in the assay on OVCAR-8 ovarian, over 100 µM; in the assay with PC-3 prostate, over 100 µM. Also, the TGI in the assay on RXF 393 renal was 24.8 µM; in the assay with SF-295 CNS it was 0.833 µM; in the assay on SW-620 colon it was over 100 µM; in the assay on T-47D breast it was over 100 µM.
`Cc1cc(N(CCCl)CCCl)ccc1C=Nc1cccnc1`: the GI50 was over 79000 nM in the assay with HT29 colon; 34.7 µM in the assay on K-562 leukemia; 42.6 µM with KM12 colon; 22.5 µM in the assay on M14 melanoma; 28.3 µM in the assay with OVCAR-8 ovarian; 22.9 µM with PC-3 prostate. Also, the GI50 is 11.6 µM in the assay with RXF 393 renal, 8680 nM in the assay with SF-295 CNS, 61.2 µM with SW-620 colon and 1.6 µM with T-47D breast. Also, the TGI in the assay with HT29 colon, in the assay on K-562 leukemia, in the assay with KM12 colon, in the assay with M14 melanoma, in the assay on OVCAR-8 ovarian and with PC-3 prostate was over 100 µM throughout. For the same molecule, the TGI in the assay with RXF 393 renal was 42.5 µM; with SF-295 CNS it was over 95.7 µM; in the assay on SW-620 colon, over 100 µM; in the assay on T-47D breast it was over 73.2 µM.
Take `Cc1c(Cl)cccc1NC(=O)CC1Sc2ccccc2NC1=O` (stereo not given): the TGI with HT29 colon was 63.3 µM; with K-562 leukemia it was 99.7 µM and > 100 µM; with KM12 colon it was > 91.6 µM and 45.9 µM; in the assay on M14 melanoma, 81.7 µM and 93 µM; with OVCAR-8 ovarian it was 33.3 µM and 43.3 µM; in the assay with PC-3 prostate it was over 86.5 µM. Also, the TGI was 28 µM and 41.6 µM in the assay with RXF 393 renal; 58.9 µM and > 100 µM in the assay on SF-295 CNS; 56.8 µM and 77.3 µM with SW-620 colon; 86.5 µM with T-47D breast. Besides, the GI50 in the assay with SW-620 colon is 11 µM and 26.3 µM.
Turning to `COc1ccccc1-c1cc2c3c(nc4ccccc42)C(=O)c2cccnc2-c3n1`, the GI50 in the assay on HT29 colon is 15300 nM; in the assay with K-562 leukemia, over 19.6 µM; with KM12 colon, 9.88 µM; in the assay with M14 melanoma, 5.1 µM; with OVCAR-8 ovarian, 8.01 µM; in the assay with PC-3 prostate it was 14.9 µM. Besides, the GI50 with RXF 393 renal was 16.7 µM; in the assay with SF-295 CNS, 17400 nM; in the assay with SW-620 colon, 9.58 µM; in the assay on T-47D breast, 9.08 µM. The TGI is 29.9 µM with HT29 colon; over 100 µM with K-562 leukemia; 33.2 µM in the assay on KM12 colon; 17.3 µM in the assay with M14 melanoma; 28.6 µM in the assay with OVCAR-8 ovarian; 38.2 µM with PC-3 prostate. Further, the TGI was 46.8 µM with RXF 393 renal, 50.8 µM in the assay on SF-295 CNS, 27.3 µM with SW-620 colon and over 94.6 µM in the assay on T-47D breast.
